This note sets out measurements from the supplement of paper PMC11208160.
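Also: IS621 recombinase and bridge RNA in Escherichia coli cells.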

The data set is described as follows: recombinant barcode read abundance after kanamycin selection (control-corrected) (log10(CPM+1)); higher = more efficient recombination; sequences stand for … in AGTGCAGAGAAAATCGGCCAGTTTTCTCTGCCTGCAGTCCGCATGCCGT…AGATTTATGCAGCGGACTGCCTTTCTCCCAAAGTGATAAACCGGACAGTATCATGGACCGGTTTTCCCGGTAATCCGTATTTGCAAGGTTGGTTTCACT; site = the 11-nt target. Summed up:
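IS621 bridge RNA target-binding loops were paired with targets in a pooled library tested in E. coli. After co-electroporation with a donor plasmid, cells were plated in two replicates on chloramphenicol/ampicillin LB agar (control) and on chloramphenicol/ampicillin/kanamycin carrying 0.1 mM IPTG. Barcodes at recombinant junctions were counted as counts per million, averaged and control-corrected to give recombination efficiency. Values are log10(CPM+1).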
On to “ATTAATCCTTGGGTTCTAACCTGTTGCCT (site ATTAATCCTAG)”, for which the “recombinant barcode read abundance (log10)” value amounted to 0.0839.
The same measure for “ATTACTACTTGGGTTCTAACCTGTTGCCT (site AATACTACTAG)”: 0.124; for “ATTACTACTTGGGTTCTAACCTGTTGCCT (site ACTACTACTAG)”: 0.0886; for “ATTACTACTTGGGTTCTAACCTGTTGCCT (site AGTACTACTAG)”: 0.343.
Regarding “ATTACTACTTGGGTTCTAACCTGTTGCCT (site ATTACTACTAG)”, the “recombinant barcode read abundance (log10)” value came to 0.411.
The same measure for “ATTAGGGCTTGGGTTCTAACCTGTTGCCG (site ATTAGGGCTCG)”: 0.413.
The value for “ATTAGGGCTTGGGTTCTAACCTGTTGCCG (site ATTGGGGCTCT)” was 0.192.
The value for “ATTCAAACTTGGGTTCTAACCTGTTGCCT (site ATTCAAACTAG)” was 0.788.
As for “ATTCAAACTTGGGTTCTAACCTGTTGCCT (site GTTCAAACTAT)”, the “recombinant barcode read abundance (log10)” value turned out to be 0.088.
The value for “ATTCGGGCTTGGGTTCTAACCTGTTGCGT (site ATTCGAGCTGC)” was 0.0603; that for “ATTCGGGCTTGGGTTCTAACCTGTTGCGT (site ATTCGGGCTAC)” was 2.07.
The value for “ATTGGGTCTTGGGTTCTAACCTGTTGCCT (site ATTGGATCTAG)” was 0.445; that for “ATTGGGTCTTGGGTTCTAACCTGTTGCCT (site ATTGGCTCTAG)” was 0.0688.
The value for “ATTGGGTCTTGGGTTCTAACCTGTTGCCT (site ATTGGGTCTAG)” was 0.818.
As for “ATTGGGTCTTGGGTTCTAACCTGTTGCCT (site ATTGGTTCTAG)”, the “recombinant barcode read abundance (log10)” value is 0.102.
The same measure for “ATTTAACCTTGGGTTCTAACCTGTTGCGT (site ATTTAACCTAC)”: 2.11; for “ATTTAACCTTGGGTTCTAACCTGTTGCGT (site GGGGTGTCTCG)”: 0.0805; for “ATTTCGACTTGGGTTCTAACCTGTTGCCT (site AATTCGACTAG)”: 0.0716.
The same measure for “ATTTCGACTTGGGTTCTAACCTGTTGCCT (site ACTTCGACTAG)”: 0.044; for “ATTTCGACTTGGGTTCTAACCTGTTGCCT (site AGTTCGACTAG)”: 0.142.
The same measure for “ATTTCGACTTGGGTTCTAACCTGTTGCCT (site ATTTCGACTAG)”: 0.16; for “CAAACATCTTGGGTTCTAACCTGTTGCCT (site CAAACAACTAG)”: 0.129; for “CAAACATCTTGGGTTCTAACCTGTTGCCT (site CAAACACCTAG)”: 0.0425.
Consider “CAAACATCTTGGGTTCTAACCTGTTGCCT (site CAAACAGCTAG)”, for which the “recombinant barcode read abundance (log10)” value was 0.0169.
The same measure for “CAAACATCTTGGGTTCTAACCTGTTGCCT (site CAAACATCTAG)”: 0.162; for “CAAACTACTTGGGTTCTAACCTGTTGCCA (site CAAACTACTTG)”: 0.0171.
The same measure for “CAAACTACTTGGGTTCTAACCTGTTGCCA (site TTGCGGCCTCT)”: 0.078.
Take “CAAAGAGCTTGGGTTCTAACCTGTTGCTG (site CAAAGAGCTCA)”: the “recombinant barcode read abundance (log10)” value came to 1.38.
The value for “CAAAGAGCTTGGGTTCTAACCTGTTGCTG (site GTCCAGCCTGT)” was 0.0339.
The same measure for “CAAAGTCCTTGGGTTCTAACCTGTTGCAT (site CAAAGTCCTAA)”: 0.191; for “CAAAGTCCTTGGGTTCTAACCTGTTGCAT (site CAAAGTCCTAC)”: 0.0225; for “CAAAGTCCTTGGGTTCTAACCTGTTGCAT (site CAAAGTCCTAG)”: 0.59.
The same measure for “CAAAGTCCTTGGGTTCTAACCTGTTGCAT (site CAAAGTCCTAT)”: 1.46.
For “CAAAGTCCTTGGGTTCTAACCTGTTGCGT (site CAAAGTCCTAA)”, the “recombinant barcode read abundance (log10)” value was 0.128.
For “CAAAGTCCTTGGGTTCTAACCTGTTGCGT (site CAAAGTCCTAC)”, the “recombinant barcode read abundance (log10)” value amounted to 2.24.
Consider “CAAAGTCCTTGGGTTCTAACCTGTTGCGT (site CAAAGTCCTAG)”, for which the “recombinant barcode read abundance (log10)” value amounted to 0.294.
Take “CAAAGTCCTTGGGTTCTAACCTGTTGCGT (site CAAAGTCCTAT)”: the “recombinant barcode read abundance (log10)” value was found to be 0.932.
The value for “CAAATTACTTGGGTTCTAACCTGTTGCCT (site CAAATTACTAG)” was 0.0574; that for “CAAATTACTTGGGTTCTAACCTGTTGCCT (site CAGATGACTAG)” was 0.161; that for “CAACCTTCTTGGGTTCTAACCTGTTGCCT (site CAACCTTCTAG)” was 0.7.
The same measure for “CAACCTTCTTGGGTTCTAACCTGTTGCCT (site CTACCTTCTAG)”: 0.025; for “CAAGACCCTTGGGTTCTAACCTGTTGCCT (site CAAGACCCTAG)”: 2.5; for “CAAGACCCTTGGGTTCTAACCTGTTGCCT (site CACGACCCTAG)”: 0.763.
Regarding “CAAGACCCTTGGGTTCTAACCTGTTGCCT (site CAGGACCCTAG)”, the “recombinant barcode read abundance (log10)” value turned out to be 1.05.
The same measure for “CAAGACCCTTGGGTTCTAACCTGTTGCCT (site CATGACCCTAG)”: 1.17.
The same measure for “CAAGAGTCTTGGGTTCTAACCTGTTGCTT (site CAAGAGTCTAA)”: 2.26; for “CAAGAGTCTTGGGTTCTAACCTGTTGCTT (site CGAGAGACTAA)”: 0.178.
The same measure for “CAAGGGACTTGGGTTCTAACCTGTTGCGG (site CAAGGGACTCC)”: 2.33; for “CAAGGGACTTGGGTTCTAACCTGTTGCGG (site CAGGGGACTCG)”: 0.0306; for “CAAGTCCCTTGGGTTCTAACCTGTTGCCT (site AAAGTCCCTAG)”: 0.0441.
With “CAAGTCCCTTGGGTTCTAACCTGTTGCCT (site CAAGTCCCTAG)”, the “recombinant barcode read abundance (log10)” value came out at 1.9.
The same measure for “CAAGTCCCTTGGGTTCTAACCTGTTGCCT (site GAAGTCCCTAG)”: 0.207.
The value for “CAAGTCCCTTGGGTTCTAACCTGTTGCCT (site TAAGTCCCTAG)” was 0.211.
The value for “CAAGTCGCTTGGGTTCTAACCTGTTGCCT (site CAAGTAGCTAG)” was 0.219; that for “CAAGTCGCTTGGGTTCTAACCTGTTGCCT (site CAAGTCGCTAG)” was 1.29.
With “CAAGTCGCTTGGGTTCTAACCTGTTGCCT (site CAAGTGGCTAG)”, the “recombinant barcode read abundance (log10)” value worked out at 0.458.
Turning to “CAAGTCGCTTGGGTTCTAACCTGTTGCCT (site CAAGTTGCTAG)”, the “recombinant barcode read abundance (log10)” value was 0.0227.
The value for “CAATCCTCTTGGGTTCTAACCTGTTGCCT (site AAATCCTCTAG)” was 0.0785; that for “CAATCCTCTTGGGTTCTAACCTGTTGCCT (site CAATCCTCTAG)” was 1.2; that for “CAATCCTCTTGGGTTCTAACCTGTTGCCT (site GAATCCTCTAG)” was 0.0242.
The same measure for “CAATCCTCTTGGGTTCTAACCTGTTGCCT (site TAATCCTCTAG)”: 0.127; for “CAATCCTCTTGGGTTCTAACCTGTTGCTA (site CAATCCTCTTA)”: 0.443; for “CAATCCTCTTGGGTTCTAACCTGTTGCTA (site TCTGTAACTAG)”: 0.0981.
For “CAATGGCCTTGGGTTCTAACCTGTTGCCT (site CAAAGGCCTAG)”, the “recombinant barcode read abundance (log10)” value worked out at 0.126.
The value for “CAATGGCCTTGGGTTCTAACCTGTTGCCT (site CAACGGCCTAG)” was 0.253; that for “CAATGGCCTTGGGTTCTAACCTGTTGCCT (site CAAGGGCCTAG)” was 0.27; that for “CAATGGCCTTGGGTTCTAACCTGTTGCCT (site CAATGGCCTAG)” was 0.571.
The value for “CACAAAGCTTGGGTTCTAACCTGTTGCCT (site CACAAAGCTAG)” was 0.84; that for “CACAAAGCTTGGGTTCTAACCTGTTGCCT (site CACACAGCTAG)” was 0.143.
The same measure for “CACAACACTTGGGTTCTAACCTGTTGCCT (site CACAACACTAG)”: 1.84; for “CACAACACTTGGGTTCTAACCTGTTGCCT (site CACACCACTAG)”: 0.287; for “CACAACACTTGGGTTCTAACCTGTTGCCT (site CACAGCACTAG)”: 0.0135.
In the case of “CACAACACTTGGGTTCTAACCTGTTGCCT (site CACATCACTAG)”, the “recombinant barcode read abundance (log10)” value was 0.0296.
As to “CACAAGTCTTGGGTTCTAACCTGTTGCGT (site CACAAGTCTAC)”, the “recombinant barcode read abundance (log10)” value stood at 1.38.
As to “CACAAGTCTTGGGTTCTAACCTGTTGCGT (site CACCAGTCTCC)”, the “recombinant barcode read abundance (log10)” value worked out at 0.0392.
Regarding “CACACCACTTGGGTTCTAACCTGTTGCCT (site CACAACACTAG)”, the “recombinant barcode read abundance (log10)” value is 0.243.
On to “CACACCACTTGGGTTCTAACCTGTTGCCT (site CACACCACTAG)”, for which the “recombinant barcode read abundance (log10)” value was found to be 0.698.
